How the values were obtained:
[1] = target: T1, GPR6 (Homo sapiens, UniProt P46095); assay: GPR6 antagonist functional cAMP assay (LANCE Ultra cAMP TR-FRET, CHO cells stably expressing GPR6); assay type: cell-based
T1 construct: expressed in transfected cells; host or cells: CHO cells
In short: (§1)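 Compounds, at 0.1% final DMSO, acted on the cells for 45 minutes at 37 °C in the presence of the phosphodiesterase inhibitor Ro 20-1724 (150 μM). After lysis and detection, plates were shaken 1 h at room temperature and emission at 665 nm was recorded. Normalized data gave IC50 values.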

[2] = target: T2, GPR3 (Homo sapiens, UniProt P46089); assay: GPR3 antagonist functional cAMP assay (LANCE Ultra cAMP TR-FRET, CHO cells stably expressing GPR3); assay type: cell-based
T2 construct: expressed in transfected cells; host or cells: CHO cells
In short: as §1

[3] = CHO cells stably expressing GPR6, cAMP assay (Example 24)
[4] = CHO cells stably expressing GPR3, cAMP assay (Example 24)
[5] = procedure as described in Example 24
[6] = CHO cells stably expressing GPR6, cAMP assay
[7] = CHO cells stably expressing GPR3, cAMP assay

T1 sequence (P46095 whole entry): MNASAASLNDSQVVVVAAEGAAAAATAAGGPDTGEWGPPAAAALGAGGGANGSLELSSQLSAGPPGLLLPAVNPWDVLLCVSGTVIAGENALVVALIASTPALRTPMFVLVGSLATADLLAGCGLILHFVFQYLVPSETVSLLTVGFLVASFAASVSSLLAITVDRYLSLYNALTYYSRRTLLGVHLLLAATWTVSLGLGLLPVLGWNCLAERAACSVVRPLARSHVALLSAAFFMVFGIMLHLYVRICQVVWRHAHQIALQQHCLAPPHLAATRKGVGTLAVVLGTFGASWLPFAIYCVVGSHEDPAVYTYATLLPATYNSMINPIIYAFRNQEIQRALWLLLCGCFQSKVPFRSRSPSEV
T2 sequence (P46089 whole entry, species assumed): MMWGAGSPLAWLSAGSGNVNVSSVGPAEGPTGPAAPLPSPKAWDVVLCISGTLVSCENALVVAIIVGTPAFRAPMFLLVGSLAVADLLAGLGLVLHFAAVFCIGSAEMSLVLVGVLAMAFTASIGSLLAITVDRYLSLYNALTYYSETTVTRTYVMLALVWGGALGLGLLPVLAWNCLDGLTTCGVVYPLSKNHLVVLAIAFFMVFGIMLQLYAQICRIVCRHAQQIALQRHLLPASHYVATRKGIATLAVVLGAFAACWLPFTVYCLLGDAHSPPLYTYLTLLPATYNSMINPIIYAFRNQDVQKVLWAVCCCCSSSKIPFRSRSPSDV

SMILES | IC50 [1, 3] | IC50 [2, 4] | other results
CC(=O)N1CCc2nc(N3CCC(Oc4ccc(F)cc4F)CC3)c(-c3cnn(CCC#N)c3)nc2C1 [Compound 73, 3-(4-{6-acetyl-2-[4-(2,4-difluorophenoxy)piperidin-1-yl]-5H,6H,7H,8H-pyrido[3,4-b]pyrazin-3-yl}-1H-pyrazol-1-yl)propanenitrile] | 100 to 1000 nM | 1000 to 30000 nM | 
CC(=O)N1CCc2nc(N3CCC(Cc4cc(F)ccc4F)CC3)c(-c3ccc(F)c(N)n3)nc2C1 [Compound 702, 1-[3-(6-amino-5-fluoro-2-pyridyl)-2-{4-[(2,5-difluorophenyl)methyl]-1-piperidyl}-5,6,7,8-tetrahydro-1,4,6-triaza-6-naphthyl]-1-ethanone] |  |  | IC50 ([1]; procedure of Example 24): < 100 nM; IC50 ([2]; procedure of Example 24): 100 to 1000 nM
CC(=O)OC1CCCN(c2nc3c(nc2-c2cnn(C)c2)CN(Cc2ccccc2)CC3)C1 (centres unmarked) [Compound 278, 1-[6-benzyl-3-(1-methyl-1H-pyrazol-4-yl)-5H,6H,7H,8H-pyrido[3,4-b]pyrazin-2-yl]piperidin-3-yl acetate] |  |  | IC50 ([1]; procedure of Example 24): 1000 to 30000 nM; IC50 ([2]; procedure of Example 24): 1000 to 30000 nM
CC(=O)N1CCc2nc(N3CCC(Oc4ccc(F)cc4F)CC3)c(-c3cnc4n3CCNC4)nc2C1 [Compound 24, 1-(2-(4-(2,4-difluorophenoxy)piperidin-1-yl)-3-(5,6,7,8-tetrahydroimidazo[1,2-a]pyrazin-3-yl)-7,8-dihydropyrido[3,4-b]pyrazin-6(5H)-yl)ethan-1-one] |  |  | IC50 [1, 5]: 1000 to 30000 nM; IC50 [2, 5]: 100 to 1000 nM
CC(=O)N1CCc2nc(N3CCC(Oc4ccc(F)cc4F)CC3)c(-c3ncccn3)nc2C1 [Compound 37, 1-{2-[4-(2,4-difluorophenoxy)piperidin-1-yl]-3-(pyrimidin-2-yl)-5H,6H,7H,8H-pyrido[3,4-b]pyrazin-6-yl}ethan-1-one] |  |  | IC50 [1, 5]: 1000 to 30000 nM; IC50 [2, 5]: 100 to 1000 nM
CC(=O)N1CCc2nc(N3CCN(Cc4cccc(F)c4)CC3)c(-c3cnn(C)c3)nc2C1 [Compound 256, 1-(2-{4-[(3-fluorophenyl)methyl]piperazin-1-yl}-3-(1-methyl-1H-pyrazol-4-yl)-5H,6H,7H,8H-pyrido[3,4-b]pyrazin-6-yl)ethan-1-one] | 1000 to 30000 nM | 1000 to 30000 nM | 
COC(=O)c1cc2nc(N3CCC(Oc4ccc(F)cc4F)CC3)c(-c3cncc(OC)n3)nc2cn1 [Compound 221, methyl 2-[4-(2,4-difluorophenoxy)piperidin-1-yl]-3-(6-methoxypyrazin-2-yl)pyrido[3,4-b]pyrazine-7-carboxylate] | 1000 to 30000 nM | 1000 to 30000 nM | 
CC(=O)N1CCc2nc(N3CCN(Cc4cc(F)ccc4Cl)CC3)c(-c3cnn(C)c3)nc2C1 [Compound 506, 1-(2-{4-[(2-chloro-5-fluorophenyl)methyl]-1-piperazinyl}-3-(1-methyl-4-pyrazolyl)-5,6,7,8-tetrahydro-1,4,6-triaza-6-naphthyl)-1-ethanone] |  |  | IC50 [1, 6]: 100 to 1000 nM; IC50 [2, 7]: 1000 to 30000 nM
CCn1cc(-c2nc3cnc(C(O)C(C)(C)O)cc3nc2N2CCC(Oc3ccc(F)cc3F)CC2)cn1 (centres unmarked) [Compound 307, 1-{2-[4-(2,4-difluorophenoxy)piperidin-1-yl]-3-(1-ethyl-1H-pyrazol-4-yl)pyrido[3,4-b]pyrazin-7-yl}-2-methylpropane-1,2-diol] |  |  | IC50 ([1]; procedure of Example 24): 100 to 1000 nM; IC50 ([2]; procedure of Example 24): 1000 to 30000 nM
Cn1cc(-c2nc3cnc([C@@H](O)C(C)(C)F)cc3nc2N2CCC(Oc3ccc(F)cc3F)CC2)cn1 (single isomer, unassigned) [Compound 744] |  |  | IC50 ([1]; procedure of Example 24): 100 to 1000 nM; IC50 ([2]; procedure of Example 24): 1000 to 30000 nM
N#CN1CCc2nc(N3CCC(Oc4ccc(F)cc4F)CC3)c(-c3cn[nH]c3)nc2C1 [Compound 171, 2-[4-(2,4-difluorophenoxy)piperidin-1-yl]-3-(1H-pyrazol-4-yl)-5H,6H,7H,8H-pyrido[3,4-b]pyrazine-6-carbonitrile] | < 100 nM | 1000 to 30000 nM | 
O=C(C1CNC1)N1CCc2nc(N3CCC(Oc4ccc(F)cc4F)CC3)c(-c3cn[nH]c3)nc2C1 [Compound 153, 1-[6-(azetidine-3-carbonyl)-3-(1H-pyrazol-4-yl)-5H,6H,7H,8H-pyrido[3,4-b]pyrazin-2-yl]-4-(2,4-difluorophenoxy)piperidine] | 1000 to 30000 nM | 1000 to 30000 nM | 
Cn1cc(-c2nc3cnc(C(C)(O)C(C)(C)O)cc3nc2N2CCC(Oc3ccc(F)cc3F)CC2)cn1 (centres unmarked) [Compound 434, 2-(2-(4-(2,4-difluorophenoxy)piperidin-1-yl)-3-(1-methyl-1H-pyrazol-4-yl)pyrido[3,4-b]pyrazin-7-yl)-3-methylbutane-2,3-diol] | 100 to 1000 nM | 1000 to 30000 nM | 
CCn1cc(-c2nc3cc(C(O)C(C)(C)O)ncc3nc2N2CCC(Oc3ccc(F)cc3F)CC2)cn1 (single isomer, unassigned) [Compound 588] |  |  | IC50 [1, 6]: < 100 nM; IC50 [2, 7]: 100 to 1000 nM
COc1ccc(OC2CCN(c3nc4c(nc3-c3cnn(C)c3)CN(C(C)=O)CC4)CC2)c(OC)c1 [Compound 426, 1-{2-[4-(2,4-dimethoxyphenoxy)piperidin-1-yl]-3-(1-methyl-1H-pyrazol-4-yl)-5H,6H,7H,8H-pyrido[3,4-b]pyrazin-6-yl}ethan-1-one] | 1000 to 30000 nM | 1000 to 30000 nM | 
CC(=O)N1CCc2nc(N3CCC(Oc4ccc(F)cc4F)CC3)c(-c3ccnc(N)n3)nc2C1 [Compound 475, 1-[3-(2-aminopyrimidin-4-yl)-2-[4-(2,4-difluorophenoxy)piperidin-1-yl]-5H,6H,7H,8H-pyrido[3,4-b]pyrazin-6-yl]ethan-1-one] | < 100 nM | 1000 to 30000 nM | 
CC(C)(O)C(O)c1cc2nc(-c3cnn(CF)c3)c(N3CCN(Cc4ccc(F)cc4F)CC3)nc2cn1 (single isomer, unassigned) [Compound 602] |  |  | IC50 [1, 6]: 100 to 1000 nM; IC50 [2, 7]: 100 to 1000 nM
Cn1cc(-c2nc3c(C#N)nccc3nc2N2CCC(Oc3ccc(F)cc3F)CC2)cn1 [Compound 409, 2-[4-(2,4-difluorophenoxy)piperidin-1-yl]-3-(1-methyl-1H-pyrazol-4-yl)pyrido[3,4-b]pyrazine-5-carbonitrile] | 100 to 1000 nM | 100 to 1000 nM | 
CC(=O)N1CCc2nc(N3CCC(Oc4ccc(F)cc4F)CC3)c(-c3cccc(OC(F)(F)F)n3)nc2C1 [Compound 223, 1-{2-[4-(2,4-difluorophenoxy)piperidin-1-yl]-3-[6-(trifluoromethoxy)pyridin-2-yl]-5H,6H,7H,8H-pyrido[3,4-b]pyrazin-6-yl}ethan-1-one] | 100 to 1000 nM | 1000 to 30000 nM | 
C=CC(=O)N1CCc2nc(N3CCC(Oc4ccc(F)cc4F)CC3)c(-c3cnn(C4CCCCO4)c3)nc2C1 (centres unmarked) [Compound 185, 1-{2-[4-(2,4-difluorophenoxy)piperidin-1-yl]-3-[1-(oxan-2-yl)-1H-pyrazol-4-yl]-5H,6H,7H,8H-pyrido[3,4-b]pyrazin-6-yl}prop-2-en-1-one] | 100 to 1000 nM | 1000 to 30000 nM | 
CC(C)(O)[C@@H](O)c1cc2nc(N3CCN(Cc4ccccc4F)CC3)c(-c3cnn(CF)c3)nc2cn1 (single isomer, unassigned) [Compound 647] |  |  | IC50 ([1]; procedure of Example 24): < 100 nM; IC50 ([2]; procedure of Example 24): 1000 to 30000 nM
CC(=O)N1CCc2nc(N3CCC(Oc4ccc(F)cc4F)CC3)c(-c3cnn(CCF)c3)nc2C1 [Compound 16, 1-{2-[4-(2,4-difluorophenoxy)piperidin-1-yl]-3-[1-(2-fluoroethyl)-1H-pyrazol-4-yl]-5H,6H,7H,8H-pyrido[3,4-b]pyrazin-6-yl}ethan-1-one] |  |  | IC50 [1, 5]: 100 to 1000 nM; IC50 [2, 5]: 1000 to 30000 nM

Source: patent US20260042755A1, “GPR6 INVERSE AGONISTS” (MapLight Therapeutics, Inc., priority 2022, published 2026)
